Source: ChEMBL document CHEMBL3217439, “Deciphering intracellular targets of organochalcogen based redox catalysts” (Medchemcomm, 2012)
Active and inactive are the calls of the source. The calls are words filed in the database; no cut-off is given here.

Assays:
[1] = target: T1, Tubulin (Sus scrofa) (UniProt P02554+P02550); assay: Binding affinity to pig brain tubulin after 2 hrs by DARTS-Western blot method; type: tissue-based
[2] = Cytotoxicity against Potorous tridactylus PtK2 cells after 18 hrs by MTT assay; type: functional, cell-based; conditions: PtK2, 18 h
[3] = test system: HUVEC; assay: Cytotoxicity against HUVEC after 18 hrs by MTT assay; type: functional, cell-based; conditions: Homo sapiens
[4] = test system: A-431; assay: Cytotoxicity against human A431 cells after 18 hrs by MTT assay; type: functional, cell-based; conditions: A-431, 18 h
[5] = test system: HCT-116; assay: Cytotoxicity against human HCT116 cells after 18 hrs by MTT assay; type: functional, cell-based; conditions: HCT-116, 18 h
[6] = Cytotoxicity against human KB3-1 cells after 18 hrs by MTT assay; type: functional, cell-based; conditions: KB 3-1, 18 h
[7] = test system: L929; assay: Cytotoxicity against mouse L929 cells after 18 hrs by MTT assay; type: functional, cell-based; conditions: L929, 18 h
[8] = test system: A-431; assay: Increase in ROS production in human A431 cells at after 1 hr by DCF assay; type: functional, cell-based
[9] = test system: HUVEC; assay: Increase in ROS production in HUVEC at after 1 hr by DCF assay; type: functional, cell-based; conditions: Homo sapiens
[10] = test system: A-431; assay: Increase in ROS production in human A431 cells at after 1 hr by DHE assay; type: functional, cell-based
[11] = test system: HUVEC; assay: Increase in ROS production in HUVEC at after 1 hr by DHE assay; type: functional, cell-based; conditions: Homo sapiens
[12] = test system: A-431; assay: Reduction in ATP level in human A431 cells assessed as cell viability after 10 mins by Cell Titer Glo luminescent assay; type: functional, cell-based
[13] = test system: A-431; assay: Induction of apoptosis in human A431 cells assessed as caspase3/7 activation at 2.6 uM after 5 to 25 mins by luminescence assay; type: functional, cell-based
[14] = test system: A-431; assay: Induction of apoptosis in human A431 cells at 10 ug/ml after 16 hrs using annexin V/propidium iodide by flow cytometry; type: functional, cell-based
[15] = test system: A-431; assay: Induction of apoptosis in human A431 cells at 12 ug/ml after 16 hrs using annexin V/propidium iodide by flow cytometry; type: functional, cell-based
[16] = test system: Escherichia coli; assay: Antimicrobial activity against Escherichia coli expressing tolC after 1 to 2 days by agar diffusion assay; type: functional, organism-based
[17] = test system: Escherichia coli; assay: Antimicrobial activity against Escherichia coli A1 after 1 to 2 days by agar diffusion assay; type: functional, organism-based
[18] = test system: Klebsiella pneumoniae; assay: Antimicrobial activity against Klebsiella pneumoniae after 1 to 2 days by agar diffusion assay; type: functional, organism-based
[19] = test system: Pseudomonas aeruginosa; assay: Antimicrobial activity against Pseudomonas aeruginosa after 1 to 2 days by agar diffusion assay; type: functional, organism-based
[20] = test system: Staphylococcus aureus; assay: Antimicrobial activity against Staphylococcus aureus after 1 to 2 days by agar diffusion assay; type: functional, organism-based
[21] = test system: Micrococcus luteus; assay: Antimicrobial activity against Micrococcus luteus after 1 to 2 days by agar diffusion assay; type: functional, organism-based
[22] = test system: Mycolicibacterium phlei; assay: Antimicrobial activity against Mycobacterium phlei after 1 to 2 days by agar diffusion assay; type: functional, organism-based
[23] = test system: Wickerhamomyces anomalus; assay: Antimicrobial activity against Hansenula anomala after 1 to 2 days by agar diffusion assay; type: functional, organism-based
[24] = test system: Botrytis cinerea; assay: Antimicrobial activity against Botrytis cinerea after 1 to 2 days by agar diffusion assay; type: functional, organism-based
[25] = test system: Globisporangium debaryanum; assay: Antimicrobial activity against Pythium debaryanum after 1 to 2 days by agar diffusion assay; type: functional, organism-based
[26] = test system: Aspergillus niger; assay: Antimicrobial activity against Aspergillus niger after 1 to 2 days by agar diffusion assay; type: functional, organism-based
[27] = target: T1, Tubulin (Sus scrofa); assay: (§1) Inhibition of pig brain tubulin polymerization by spectrophotometry
[28] = Inhibition of rabbit actin polymerization by spectrophotometry; parameters: species or system Oryctolagus cuniculus
[29] = target: T1, Tubulin (Sus scrofa); assay: Binding affinity to pig brain tubulin at IC50 after 2 hrs by DARTS-Western blot method
[30] = organism: Oryctolagus cuniculus; assay: Binding affinity to rabbit actin polymerization at IC50 after 2 hrs by DARTS-Western blot method
[31] = Depletion of microtubules in Potorous tridactylus PtK2 cells at IC90 by microscopy; type: cell-based
[32] = Depletion of actin filaments in Potorous tridactylus PtK2 cells at IC90 by microscopy; type: cell-based
[33] = target: Tubulin (Sus scrofa, UniProt P02554+P02550); assay: as §1
[34] = organism: Oryctolagus cuniculus; assay: Binding affinity to rabbit actin polymerization after 2 hrs by DARTS-Western blot method
[35] = target: T1, Tubulin (Sus scrofa); assay: Binding affinity to pig brain tubulin at IC90 after 2 hrs by DARTS-Western blot method
[36] = organism: Oryctolagus cuniculus; assay: Binding affinity to rabbit actin polymerization at IC90 after 2 hrs by DARTS-Western blot method

T1 sequence (P02550 whole entry, looked up): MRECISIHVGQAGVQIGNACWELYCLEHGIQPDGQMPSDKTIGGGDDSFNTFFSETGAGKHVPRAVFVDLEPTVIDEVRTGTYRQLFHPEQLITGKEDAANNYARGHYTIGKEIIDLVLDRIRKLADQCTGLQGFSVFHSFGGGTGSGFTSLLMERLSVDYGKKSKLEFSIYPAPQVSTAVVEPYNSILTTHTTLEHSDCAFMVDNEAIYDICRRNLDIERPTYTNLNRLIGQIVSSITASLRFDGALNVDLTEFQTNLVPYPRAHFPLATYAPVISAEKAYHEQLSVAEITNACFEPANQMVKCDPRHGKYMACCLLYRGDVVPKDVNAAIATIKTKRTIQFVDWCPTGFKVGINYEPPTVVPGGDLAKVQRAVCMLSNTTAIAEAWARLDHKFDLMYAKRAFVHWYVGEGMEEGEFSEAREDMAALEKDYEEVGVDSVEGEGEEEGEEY
T1 sequence (P02554 whole entry, looked up): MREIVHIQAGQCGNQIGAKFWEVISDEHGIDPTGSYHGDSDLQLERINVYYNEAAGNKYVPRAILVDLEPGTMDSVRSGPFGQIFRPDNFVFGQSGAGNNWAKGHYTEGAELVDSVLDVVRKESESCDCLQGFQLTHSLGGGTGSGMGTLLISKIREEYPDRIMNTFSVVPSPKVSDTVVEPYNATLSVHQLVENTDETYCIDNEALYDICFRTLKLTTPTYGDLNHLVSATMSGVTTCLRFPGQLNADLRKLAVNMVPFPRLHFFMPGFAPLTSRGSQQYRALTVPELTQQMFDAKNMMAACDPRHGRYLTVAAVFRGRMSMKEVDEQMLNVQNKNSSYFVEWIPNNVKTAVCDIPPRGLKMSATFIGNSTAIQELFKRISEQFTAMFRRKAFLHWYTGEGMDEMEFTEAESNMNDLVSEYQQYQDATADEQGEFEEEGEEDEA

CC[C@@H](C)[C@H](NC(=O)[C@H]1CCCCN1C)C(=O)N(COC(=O)CC(C)C)[C@H](C[C@@H](OC(C)=O)c1nc(C(=O)N[C@@H](Cc2ccc(O)cc2)C[C@H](C)C(=O)O)cs1)C(C)C
Activity [1]: Active

O=C1C([Te]c2ccccc2)=C([Te]c2ccccc2)C(=O)c2ccccc21
IC50 [2]: 7.2 µM | IC50 [3]: 5.1 µM | IC50 [4]: 4.4 µM | IC50 [5]: 5.4 µM | IC50 [6]: 250 nM | IC50 [7]: 5.8 µM | Activity [8]: Dose-dependent effect | Activity [9]: Dose-dependent effect | Activity [10]: Dose-dependent effect | Activity [11]: Dose-dependent effect | Activity [12]: Active | Activity [13]: Active | Activity [14]: Active | Activity [15]: Active | Activity [16]: Active | Activity [17]: Active | Activity [18]: Active | Activity [19]: inactive | Activity [20]: Active | Activity [21]: Active | Activity [22]: Active | Activity [23]: Active | Activity [24]: Active | Activity [25]: Active | Activity [26]: Active | inhibition [27]: inactive | IC50 [28]: 30 µM | Activity [29]: inactive | Activity [30]: Active | Activity [31]: inactive | Activity [32]: Active

CC1=C([Te]c2ccccc2)C(=O)c2ccccc2C1=O
IC50 [2]: 9 µM | IC50 [3]: 9.5 µM | IC50 [4]: 5 µM | IC50 [5]: 5.3 µM | IC50 [6]: 1300 nM | IC50 [7]: 11 µM | Activity [8]: Dose-dependent effect | Activity [9]: Dose-dependent effect | Activity [10]: Dose-dependent effect | Activity [11]: Dose-dependent effect | Activity [12]: Active | Activity [13]: Active | Activity [14]: Active | Activity [15]: Active | Activity [16]: Active | Activity [17]: Active | Activity [18]: Active | Activity [19]: inactive | Activity [20]: Active | Activity [21]: Active | Activity [22]: Active | Activity [23]: Active | Activity [24]: Active | Activity [25]: Active | Activity [26]: Active | IC50 [33]: 15 µM | IC50 [28]: 30 µM | Activity [1]: Dose-dependent effect | Activity [34]: Dose-dependent effect | Activity [35]: Active | Activity [36]: Active | Activity [31]: Active | Activity [32]: Active

COC1CC(O)/C=C/C=C/C=C\C(C)C(C(C)C(O)CC(C)O)OC(=O)/C=C/C=C/C=C/C(C)=C/C(C)C(O[C@H]2O[C@H](C)[C@@H](O)[C@H](OC)[C@H]2OC)/C=C\C=C\c2coc(n2)C1C (stereo partly specified)
Activity [30]: Active
